The source made the active and inactive calls. The rule behind the calls is not given here. Starred links: 1 amine or outer side, 2 acyl side, 3 side chain; linkers in the order of their positions; H or OH if unused. Non-standard residues stand in square brackets, D forms with d. Residues, ends and D or L forms follow the SMILES beside them. X1 = C[C@@]12Nc3ccccc3[C@]1(O)C[C@@H](C(=O)[*:2])N2[*:1]; Kyn = Nc1ccccc1C(=O)C[C@H](N)C(=O)O
Key:
3T3-L1 [1] = test: Anti-adipogenic activity against mouse 3T3-L1 cells assessed as decrease in triglyceride level at 1 to 100 uM by Oil Red O staining based analysis; type: functional, cell-based; details: dose 1-100 µM
3T3-L1 [2] = test: Cytotoxicity against mouse 3T3-L1 cells assessed as cell viability incubated for 48 hrs by MTT assay; type: toxicity, cell-based; details: 3t3-l1, 48 h
3T3-L1 [3] = test: Anti-adipogenic activity against mouse 3T3-L1 cells assessed as decrease in triglyceride level by Oil Red O staining based analysis; type: functional, cell-based

SMILES | Activity (3T3-L1 [1]) | Activity (3T3-L1 [2]) | EC50 (3T3-L1 [3]) [nM]
CC(C)C[C@@H]1NC(=O)[C@@H]2CCCN2C(=O)[C@H](Cc2ccccc2)NC(=O)[C@@H]2CCCN2C(=O)[C@H](C)NC(=O)[C@@H]2CCCN2C(=O)[C@H](Cc2ccc(O)cc2)NC1=O (cyclo(APFPLYP)) | Active | Non-Toxic | 
CC(C)C[C@@H]1NC(=O)[C@@H]2CCCN2C(=O)[C@H](Cc2ccccc2)NC(=O)[C@@H]2CCCN2C(=O)[C@H](C)NC(=O)[C@H](Cc2ccc(O)cc2)NC(=O)[C@@H]2CCCN2C(=O)[C@H](Cc2ccc(O)cc2)NC1=O (cyclo(APFPLYPY)) | Active | Non-Toxic | 
CC[C@H](C)[C@@H]1NC(=O)[C@H](Cc2c[nH]c3ccccc23)NC(=O)[C@@H]2CCCN2C(=O)CNC(=O)[C@H](Cc2ccc(O)cc2)NC(=O)CNC(=O)[C@H](C(C)C)NC(=O)[C@H](C)NC1=O (cyclo(AVGYGPWI)) | Active | Non-Toxic | 
CC(C)C[C@@H]1NC(=O)[C@H](Cc2ccc(O)cc2)NC(=O)[C@@H]2CCCN2C(=O)[C@H](Cc2ccccc2)NC(=O)CNC(=O)[C@@H]2CCCN2C1=O (cyclo(FPYLPG)) | Active | Non-Toxic | 1170
O=C1CNC(=O)[C@@H]2CCCN2C(=O)[C@H](Cc2c[nH]c3ccccc23)NC(=O)[C@H](Cc2ccc(O)cc2)NC(=O)[C@@H]2CCCN2C(=O)[C@H](Cc2ccccc2)N1 (cyclo(FPYWPG)) | Active | Non-Toxic | 
Nc1ccccc1C(=O)C[C@@H]1NC(=O)[C@H](Cc2ccc(O)cc2)NC(=O)[C@@H]2CCCN2C(=O)[C@H](Cc2ccccc2)NC(=O)CNC(=O)[C@@H]2CCCN2C1=O (cyclo(FPY[Kyn]PG)) | Active | Non-Toxic | 
C[C@@]12Nc3ccccc3[C@]1(O)C[C@H]1C(=O)N3CCC[C@H]3C(=O)NCC(=O)N[C@@H](Cc3ccccc3)C(=O)N3CCC[C@H]3C(=O)N[C@@H](Cc3ccc(O)cc3)C(=O)N12 (cyclo(FPY[X1]PG)) | Active | Non-Toxic | 
O=C1CNC(=O)[C@@H]2CCCN2C(=O)[C@H](Cc2c[nH]c3ccccc23)NC(=O)[C@H](Cc2ccc(O)cc2)NC(=O)[C@@H]2CCCN2C(=O)CN1 (cyclo(GGPYWP)) | Active | Non-Toxic | 
CC(C)C[C@@H]1NC(=O)[C@H](CO)NC(=O)[C@@H]2CCCN2C(=O)[C@H](CC(C)C)NC(=O)[C@@H]2CCCN2C(=O)[C@H](CO)NC(=O)CNC(=O)[C@H](Cc2c[nH]c3ccccc23)NC1=O (cyclo(GSPLPSLW)) | Active | Non-Toxic | 
CC(C)C[C@@H]1NC(=O)[C@@H]2CCCN2C(=O)[C@H](CO)NC(=O)CNC(=O)[C@@H]2C[C@@]3(O)c4ccccc4N[C@@]3(C)N2C(=O)[C@H](CC(C)C)NC(=O)[C@H](CO)NC(=O)[C@@H]2CCCN2C1=O (cyclo(GSPLPSL[X1])) | Active | Non-Toxic | 

— ChEMBL document CHEMBL5634185, “Drymariamides A-J, Antiadipogenic Cyclopeptides Incorporating Noncanonical Amino Acids from Drymaria cordata” (J Nat Prod, 2024)
